Reference: patent US20230406843A1, “Progranulin Modulators and Methods of Using the Same” (ARKUDA THERAPEUTICS, priority 2020, published 2023)

What follows are molecules tested on progranulin (assay: Progranulin induction cellular assay (ELISA of secreted mouse PGRN)). Settings: Mus musculus, BV-2, read-out: EC50 μM.
Type: cell-based
Procedure, shortened: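 Secreted mouse PGRN in culture medium is measured by ELISA. Cells tested are BV-2, primary cortical neurons and primary microglia. BV-2 cells are plated a day ahead, allowed 1 h to attach, then incubated 16 h.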

Work on C#CCO[C@H]1CO[C@@H](C(=O)N2CCc3ccccc3[C@@H]2c2ccc(F)cc2)C[C@@H]1N [Compound 5541, ((2R,4S,5R)-4-amino-5-(prop-2-yn-1-yloxy)tetrahydro-2H-pyran-2-yl)((S)-1-(4-fluorophenyl)-3,4-dihydroisoquinolin-2(1H)-yl)methanone] yielded an EC50 of 0.001 µM.

Same assay, conditions: progranulin induction assay; mouse pMG, primary cortical neurons and BV-2 cell lines named, cell type not given; ELISA-based readout; read-out: EC50

Point of comparison: CCN1C(=O)CN[C@H]2C[C@H](C(=O)N3CCc4ccccc4[C@@H]3c3ccc(F)cc3)OC[C@@H]21 [Compound 5536, (4aR,7R,8aS)-4-ethyl-7-((S)-1-(4-fluorophenyl)-1,2,3,4-tetrahydroisoquinoline-2-carbonyl)hexahydro-2H-pyrano[3,4-b]pyrazin-3(4H)-one], EC50 0.15 µM. Against it:
- N[C@@H]1CC[C@@H](C(=O)N2CCc3ccccc3[C@@H]2c2ccc(F)cc2)OC1 [Compound 5015, ((2S,5R)-5-aminotetrahydro-2H-pyran-2-yl)((S)-1-(4-fluorophenyl)-3,4-dihydroisoquinolin-2(1H)-yl)methanone] — 1.7-fold lower, 0.09 µM
- N[C@H]1CC[C@H](C(=O)N2CCc3ccccc3[C@@H]2c2ccc(F)cc2)OC1 [Compound 5042, ((2R,5S)-5-aminotetrahydro-2H-pyran-2-yl)((S)-1-(4-fluorophenyl)-3,4-dihydroisoquinolin-2(1H)-yl)methanone] — 1.9-fold lower, 0.079 µM
- N[C@H]1C[C@H](C(=O)N2CCc3ccccc3[C@@H]2c2ccc(F)cc2)OC[C@@H]1OC1CC1 [Compound 5530, ((2R,4S,5R)-4-amino-5-cyclopropoxytetrahydro-2H-pyran-2-yl)((S)-1-(4-fluorophenyl)-3,4-dihydroisoquinolin-2(1H)-yl)methanone] — 500-fold lower, 0.0003 µM
- N[C@H]1C[C@H](C(=O)N2CCc3ccccc3[C@@H]2c2ccc(F)cc2)OC[C@@H]1OCc1ccccc1 [Compound 5531, ((2R,4S,5R)-4-amino-5-(benzyloxy)tetrahydro-2H-pyran-2-yl)((S)-1-(4-fluorophenyl)-3,4-dihydroisoquinolin-2(1H)-yl)methanone] — 1.7-fold lower, 0.088 µM
- O=C1CN[C@H]2C[C@H](C(=O)N3CCc4ccccc4[C@@H]3c3ccc(F)cc3)OC[C@@H]2N1 [Compound 5532, (4aR,7R,8aS)-7-((S)-1-(4-fluorophenyl)-1,2,3,4-tetrahydroisoquinoline-2-carbonyl)hexahydro-2H-pyrano[3,4-b]pyrazin-3(4H)-one] — 11-fold higher, 1.68 µM
- CN1C(=O)CN[C@H]2C[C@H](C(=O)N3CCc4ccccc4[C@@H]3c3ccc(F)cc3)OC[C@@H]21 [Compound 5533, (4aR,7R,8aS)-7-((S)-1-(4-fluorophenyl)-1,2,3,4-tetrahydroisoquinoline-2-carbonyl)-4-methylhexahydro-2H-pyrano[3,4-b]pyrazin-3(4H)-one] — 1.9-fold higher, 0.289 µM
- N[C@H]1C[C@H](C(=O)N2CCc3ccccc3[C@@H]2c2ccc(F)cc2)OC[C@@H]1CO [Compound 5537, ((2R,4S,5S)-4-amino-5-(hydroxymethyl)tetrahydro-2H-pyran-2-yl)((S)-1-(4-fluorophenyl)-3,4-dihydroisoquinolin-2(1H)-yl)methanone] — 5.2-fold lower, 0.029 µM
- N[C@H]1C[C@H](C(=O)N2CCc3ccccc3[C@@H]2c2ccc(F)cc2)OC[C@H]1CO [Compound 5538, ((2R,4S,5R)-4-amino-5-(hydroxymethyl)tetrahydro-2H-pyran-2-yl)((S)-1-(4-fluorophenyl)-3,4-dihydroisoquinolin-2(1H)-yl)methanone] — 2.3-fold lower, 0.064 µM
- N[C@H]1C[C@H](C(=O)N2CCc3ccccc3[C@@H]2c2ccc(F)cc2)OC[C@@H]1NCC(F)(F)F [Compound 5539, ((2R,4S,5R)-4-amino-5-((2,2,2-trifluoroethyl)amino)tetrahydro-2H-pyran-2-yl)((S)-1-(4-fluorophenyl)-3,4-dihydroisoquinolin-2(1H)-yl)methanone] — 150-fold lower, 0.001 µM
- O=C([C@H]1C[C@@H]2NCCS(=O)(=O)[C@H]2CO1)N1CCc2ccccc2[C@@H]1c1ccc(F)cc1 [Compound 5542, ((4aR,7R,8aS)-4,4-dioxidooctahydropyrano[3,4-b][1,4]thiazin-7-yl)((S)-1-(4-fluorophenyl)-3,4-dihydroisoquinolin-2(1H)-yl)methanone] — 29-fold higher, 4.39 µM
- C#CCO[C@H]1COC(C(=O)N2CCc3ccccc3[C@@H]2c2ccc(F)cc2)C[C@@H]1NCCCOC (stereo partly drawn) [Compound 5546] — 5-fold lower, 0.03 µM
- [NH-][S@@+2]1([O-])CCN[C@H]2C[C@H](C(=O)N3CCc4ccccc4[C@@H]3c3ccc(F)cc3)OC[C@@H]21 [Compound 5553, ((S)-1-(4-fluorophenyl)-3,4-dihydroisoquinolin-2(1H)-yl)((4R,4aR,7R,8aS)-4-imino-4-oxidooctahydro-2H-^4-pyrano[3,4-b][1,4]thiazin-7-yl)methanone] — 6.8-fold higher, 1.02 µM
- CC[C@@H]1CN[C@H]2C[C@H](C(=O)N3CCc4ccccc4[C@@H]3c3ccc(F)cc3)OC[C@@H]2O1 [Compound 5564, ((3R,4aR,7R,8aS)-3-ethyloctahydropyrano[3,4-b][1,4]oxazin-7-yl)((S)-1-(4-fluorophenyl)-3,4-dihydroisoquinolin-2(1H)-yl)methanone] — 38-fold lower, 0.004 µM
- CCC[C@@H]1CN[C@H]2C[C@H](C(=O)N3CCc4ccccc4[C@@H]3c3ccc(F)cc3)OC[C@@H]2O1 [Compound 5565] — higher, > 0.3 µM
- COC[C@@H]1CN[C@H]2C[C@H](C(=O)N3CCc4ccccc4[C@@H]3c3ccc(F)cc3)OC[C@@H]2O1 [Compound 5566] — higher, > 0.3 µM
- CC(C)[C@@H]1CN[C@H]2C[C@H](C(=O)N3CCc4ccccc4[C@@H]3c3ccc(F)cc3)OC[C@@H]2O1 [Compound 5567] — 2.1-fold lower, 0.07 µM
- CO[C@H]1CO[C@@H](C(=O)N2CCc3ccccc3[C@@H]2c2ccc(F)cc2)C[C@@H]1NCCO [Compound 5568] — 6-fold lower, 0.025 µM
- COCCN[C@H]1C[C@H](C(=O)N2CCc3ccccc3[C@@H]2c2ccc(F)cc2)OC[C@@H]1OC [Compound 5569, ((S)-1-(4-fluorophenyl)-3,4-dihydroisoquinolin-2(1H)-yl)((2R,4S,5R)-5-methoxy-4-((2-methoxyethyl)amino)tetrahydro-2H-pyran-2-yl)methanone] — higher, > 0.3 µM
- CO[C@H]1CO[C@@H](C(=O)N2CCc3ccccc3[C@@H]2c2ccc(F)cc2)C[C@@H]1NCCC(F)(F)F [Compound 5570] — 1.5-fold higher, 0.232 µM
- CO[C@H]1CO[C@@H](C(=O)N2CCc3ccccc3[C@@H]2c2ccc(F)cc2)C[C@@H]1N(C)C [Compound 5575, ((2R,4S,5R)-4-(dimethylamino)-5-methoxytetrahydro-2H-pyran-2-yl)((S)-1-(4-fluorophenyl)-3,4-dihydroisoquinolin-2(1H)-yl)methanone] — 5.4-fold lower, 0.028 µM
- CO[C@H]1CO[C@@H](C(=O)N2CCc3ccccc3[C@@H]2c2ccc(F)cc2)C[C@@H]1NCC(F)(F)F [Compound 5577] — higher, > 0.3 µM
- C=CCN[C@H]1C[C@H](C(=O)N2CCc3ccccc3[C@@H]2c2ccc(F)cc2)OC[C@@H]1OC [Compound 5578] — 5-fold lower, 0.03 µM
- CCCN[C@H]1C[C@H](C(=O)N2CCc3ccccc3[C@@H]2c2ccc(F)cc2)OC[C@@H]1OC [Compound 5579] — 3-fold lower, 0.05 µM
- CN[C@H]1C[C@H](C(=O)N2CCc3ccccc3[C@@H]2c2ccc(F)cc2)OC[C@@H]1O [Compound 5586] — within 1.5-fold, 0.219 µM
- CCN[C@H]1C[C@H](C(=O)N2CCc3ccccc3[C@@H]2c2ccc(F)cc2)OC[C@@H]1O [Compound 5587] — within 1.5-fold, 0.194 µM
- CCN1CCN[C@H]2C[C@H](C(=O)N3CCc4ccccc4[C@@H]3c3ccc(F)cc3)OC[C@@H]21 [Compound 5599] — 150-fold lower, 0.001 µM
- CCCN1CCN[C@H]2C[C@H](C(=O)N3CCc4ccccc4[C@@H]3c3ccc(F)cc3)OC[C@@H]21 [Compound 5600] — 7.1-fold lower, 0.021 µM
- COCCN1CCN[C@H]2C[C@H](C(=O)N3CCc4ccccc4[C@@H]3c3ccc(F)cc3)OC[C@@H]21 [Compound 5601] — 8.3-fold lower, 0.018 µM
- CC(C)(C)N1CCN[C@H]2C[C@H](C(=O)N3CCc4ccccc4[C@@H]3c3ccc(F)cc3)OC[C@@H]21 [Compound 5603] — 19-fold lower, 0.008 µM

What follows are molecules tested on progranulin (assay: In vivo progranulin secretion assay after oral administration). Settings: oral administration at 5 mg/kg; progranulin secretion post dose relative to the control.
Method: In vivo Assays: Progranulin can be detected in tissue sample or biofluids including blood, plasma, brain, liver and cerebrospinal fluid (CSF) from different non-human animals including rat, mouse, dog, and cynomolgus monkeys. Progranulin concentration can be detected using one or more methods including an enzyme-linked immunosorbent assay (ELISA). Non-human animals including rat, mouse, dog, and cynomolgus monkeys are administered a compound as disclosed herein by one of several routes of administration including oral, subcutaneous, and intravenous routes of administration. Samples of tissue or biofluids are collected at specific times before and following compound administration. The amount of progranulin in a specific sample collected after compound administration is compared to the amount of progranulin detected in a sample of the same tissue or biofluid obtained prior to compound administration. […] Test compounds can be administered one or more times. When compounds are administered more than one time, the number of doses and the intervals between doses can be adjusted to any combination. For example, a test compound can be administered a single time, a test compound can be administered 8 times at intervals of 12 hours, and a test compound can be administered 4 times at intervals of 24 hours. The ability of a compound to increase progranulin can be quantified in several ways. […]

For N[C@@H]1CC[C@@H](C(=O)N2CCc3ccccc3[C@@H]2c2ccc(F)cc2)OC1 [Compound 5015, ((2S,5R)-5-aminotetrahydro-2H-pyran-2-yl)((S)-1-(4-fluorophenyl)-3,4-dihydroisoquinolin-2(1H)-yl)methanone], the “Activity Level” value was 7 (at least about 300% (Activity level 7)).
In the case of N[C@H]1CC[C@H](C(=O)N2CCc3ccccc3[C@@H]2c2ccc(F)cc2)OC1 [Compound 5042, ((2R,5S)-5-aminotetrahydro-2H-pyran-2-yl)((S)-1-(4-fluorophenyl)-3,4-dihydroisoquinolin-2(1H)-yl)methanone], the “Activity Level” value is reported as 6 (at least about 250% (Activity level 6)).
